Measured values as given in article PMC8445441, “Elucidating the mechanism by which synthetic helper peptides sensitize Pseudomonas aeruginosa to multiple antibiotics” (PLoS Pathogens, 2021).
Where two headings read alike, the source gives them in different places.

Tests used:
P. aeruginosa AUMC-Pa-5 = test: microbe, parasite or virus in culture; settings: strain AUMC-Pa-5
How it was run: (§1)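 Growth inhibition was scored by eye after an 18 h, 37 °C incubation of drug-bacteria mixtures in Mueller-Hinton broth. Inoculum suspension held approximately 1 × 10^6 CFU/mL before 1:1 mixing.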

P. aeruginosa AUMC-Pa-4 = test: microbe, parasite or virus in culture; settings: strain AUMC-Pa-4
How it was run: as §1

P. aeruginosa AUMC-Pa-3 = test: microbe, parasite or virus in culture; settings: strain AUMC-Pa-3
How it was run: as §1

P. aeruginosa AUMC-Pa-6 = test: microbe, parasite or virus in culture; settings: strain AUMC-Pa-6
How it was run: as §1

P. aeruginosa PAO1 = test: microbe, parasite or virus in culture; settings: S3 Table, PAO1
How it was run: as §1

P. aeruginosa PA14 = test: microbe, parasite or virus in culture; design: MICa: MIC of the antibiotic / MICac: MIC of the antibiotic in the combination: unit not given beside the values; settings: strain PA14
Description: (§2) The MIC tests were performed in triplicate using broth microdilution in accordance with Clinical and Laboratory Standards Institute (CLSI) recommendations (http://iacld.ir/DL/public/CLSI-2018-M100-S28.pdf). Briefly, drugs were two-fold diluted in MHB and mixed with an equal volume of bacterial suspensions containing approximately 1 × 10^6 CFU/mL in 96-well microliter plate. After 18 h incubation at 37 °C, the MIC values were defined as the lowest concentrations of antibiotics with no visible growth of bacteria. […] Otherwise, 1/4 MIC of the peptide was used in the combination. […] If needed, membrane compounds PG, PE, PC, CL or LPS, or membrane stabilizers MgCl2 or CaCl2, or efflux pumps inhibitor PAβN were added to the broth medium to clarify the effect of other substances on the synergy between peptide and antibiotics. All the tests were performed in triplicate.
(§3) The fractional inhibitory concentration (FIC) indices were calculated using the previously described formula FICI = FICa + FICb = MICac/MICa + MICbc/MICb. The FICI was interpreted according to EUCAST [65] as follows: synergistic, FICI≤0.5; additive, 0.5<FICI≤1; indifferent, 1<FICI<2; antagonistic, FICI ≥2. For the FICI calculations, twice the highest concentration tested was used in the cases where the MIC was not reached.

P. aeruginosa NR-31041 = test: microbe, parasite or virus in culture; design: MICa: MIC of the antibiotic / MICac: MIC of the antibiotic in the combination: unit not given beside the values; settings: strain NR-31041
Description: as §2, §3

P. aeruginosa NR-31040 = test: microbe, parasite or virus in culture; design: MICa: MIC of the antibiotic / MICac: MIC of the antibiotic in the combination: unit not given beside the values; settings: strain NR-31040
Description: as §2, §3

P. aeruginosa PAK = test: microbe, parasite or virus in culture; design: MICa: MIC of the antibiotic / MICac: MIC of the antibiotic in the combination: unit not given beside the values; settings: strain PAK
Description: as §2, §3

P. aeruginosa ATCC27853 = test: microbe, parasite or virus in culture; design: MICa: MIC of the antibiotic / MICac: MIC of the antibiotic in the combination: unit not given beside the values; settings: strain ATCC27853
Description: as §2, §3

[1] = test system: clinical P. aeruginosa isolates; test: microbe, parasite or virus in culture; settings: Pseudomonas aeruginosa, 18 h, antibiotic alone
How it was run: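 Broth microdilution per CLSI in MHB, two-fold drug dilutions mixed with an equal volume of bacteria at about 1 × 10^6 CFU/mL. After 18 h at 37 °C, MIC taken as the lowest concentration with no visible growth; run in triplicate.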

P. aeruginosa AUMC-Pa-2 = settings: strain AUMC-Pa-2; antibiotic + D-11 (MICb/MICbc 64/4)
Description: as §2, §3

P. aeruginosa AUMC-Pa-1 = settings: strain AUMC-Pa-1; antibiotic + D-11 (MICb/MICbc 128/4)
Description: as §2, §3

P. aeruginosa HM-214 = settings: strain HM-214; antibiotic + D-11 (MICb/MICbc 128/4)
Description: as §2, §3

[2] = antibiotic + D-11 (MICb/MICbc 64/4)
[3] = antibiotic alone, unit not given
[4] = with D-11 at MICbc 4, unit not given
[5] = antibiotic + D-11 (MICb/MICbc 128/4)

For CC1(C)S[C@@H]2[C@H](NC(=O)C(C(=O)O)c3ccccc3)C(=O)N2[C@H]1C(=O)O (some centres unmarked) [Carbenicillin], the FICI (P. aeruginosa AUMC-Pa-5; [2]) was 1.063, the “MICa: MIC of the antibiotic” value (P. aeruginosa AUMC-Pa-5; [3]) was 128/128 and the “MICac: MIC of the antibiotic in the combination” value (“MICac: MIC of the antibiotic” for short) (P. aeruginosa AUMC-Pa-5; [4]) was 128/128. For the same compound, the FICI (P. aeruginosa AUMC-Pa-4; [5]) was 0.531, the “MICa: MIC of the antibiotic” value (P. aeruginosa AUMC-Pa-4; [3]) was 128 and the “MICac: MIC of the antibiotic” value (P. aeruginosa AUMC-Pa-4; [4]) was 64. The FICI (P. aeruginosa AUMC-Pa-3; [5]) was 0.281, the “MICa: MIC of the antibiotic” value (P. aeruginosa AUMC-Pa-3; [3]) was 128 and the “MICac: MIC of the antibiotic” value (P. aeruginosa AUMC-Pa-3; [4]) was 32. The FICI (P. aeruginosa AUMC-Pa-6; [2]) was 1.063, the “MICa: MIC of the antibiotic” value (P. aeruginosa AUMC-Pa-6; [3]) was 128/128 and the “MICac: MIC of the antibiotic” value (P. aeruginosa AUMC-Pa-6; [4]) was 128/128. The FICI (P. aeruginosa PAO1; antibiotic + 2 μM D-11) was 0.313, the FICI (P. aeruginosa PAO1; antibiotic + 4 μM D-11) was 0.188 and the “MICac: the MIC for the antibiotic in the combination” value (P. aeruginosa PAO1; with 2 μM D-11) was 16 µM. For the same compound, the “MICac: the MIC for the antibiotic in the combination” value (P. aeruginosa PAO1; with 4 μM D-11) was 4 µM, the “MICa: the MIC of antibiotics” value (P. aeruginosa PAO1; antibiotic alone) was 64 µM and the FICI (P. aeruginosa PA14; [5]) was 1.031. The “MICa: MIC of the antibiotic” value (P. aeruginosa PA14; [3]) was 128/128, the “MICac: MIC of the antibiotic” value (P. aeruginosa PA14; [4]) was 128/128 and the FICI (P. aeruginosa NR-31041; [2]) was 1.063. The “MICa: MIC of the antibiotic” value (P. aeruginosa NR-31041; [3]) was 128/128, the “MICac: MIC of the antibiotic” value (P. aeruginosa NR-31041; [4]) was 128/128 and the FICI (P. aeruginosa NR-31040; [5]) was 1.031. For the same compound, the “MICa: MIC of the antibiotic” value (P. aeruginosa NR-31040; [3]) was 64/64, the “MICac: MIC of the antibiotic” value (P. aeruginosa NR-31040; [4]) was 64/64 and the FICI (P. aeruginosa PAK; [2]) was 0.563. For the same compound, the “MICa: MIC of the antibiotic” value (P. aeruginosa PAK; [3]) was 128, the “MICac: MIC of the antibiotic” value (P. aeruginosa PAK; [4]) was 64 and the FICI (P. aeruginosa ATCC27853; antibiotic + D-11 (MICb/MICbc 32/4)) was 0.375. The “MICa: MIC of the antibiotic” value (P. aeruginosa ATCC27853; [3]) was 128, the “MICac: MIC of the antibiotic” value (P. aeruginosa ATCC27853; [4]) was 32 and the MIC ([1]; read-out: Antibiotic sensibility (MIC) of clinical P. aeruginosa isolate AUMC-Pa-1, strain AUMC-Pa-1) was greater than 128 µM. The MIC ([1]; read-out: Antibiotic sensibility (MIC) of clinical P. aeruginosa isolate AUMC-Pa-2, strain AUMC-Pa-2) was 64 µM, the MIC ([1]; read-out: Antibiotic sensibility (MIC) of clinical P. aeruginosa isolate AUMC-Pa-3, strain AUMC-Pa-3) was 128 µM and the MIC ([1]; read-out: Antibiotic sensibility (MIC) of clinical P. aeruginosa isolate AUMC-Pa-4, strain AUMC-Pa-4) was 128 µM. The MIC ([1]; read-out: Antibiotic sensibility (MIC) of clinical P. aeruginosa isolate AUMC-Pa-5, strain AUMC-Pa-5) was 128 µM, the MIC ([1]; read-out: Antibiotic sensibility (MIC) of clinical P. aeruginosa isolate AUMC-Pa-6, strain AUMC-Pa-6) was 128 µM and the MIC ([1]; read-out: Antibiotic sensibility (MIC) of clinical P. aeruginosa isolate HM-214, strain HM-214) was 128 µM. The MIC ([1]; read-out: Antibiotic sensibility (MIC) of clinical P. aeruginosa isolate NR-31040, strain NR-31040) was 64 µM, the MIC ([1]; read-out: Antibiotic sensibility (MIC) of clinical P. aeruginosa isolate NR-31041, strain NR-31041) was 128 µM and the FICI (P. aeruginosa AUMC-Pa-2) was 1.063. The FICI (P. aeruginosa AUMC-Pa-1) was 0.531 and the FICI (P. aeruginosa HM-214) was 1.031.
